Patent US11059795B2, “Androgen receptor modulators and methods for their use” (ESSA Pharma, Inc., priority 2018, dated 2021)

Tests used:
[1] = target: T1, LBD of glucocorticoid receptor (GR) fused to DBD of GAL4 (Homo sapiens, UniProt P04150); experiment: LBD-expressing reporter assay (GeneBLAzer), GR LBD; assay type: cell-based; conditions: inhibition of maximal activity attained with agonist; read-out: Steroid Receptor LBD IC50 (μM) GR
T1 sequence (P04150 524-758 limits assumed): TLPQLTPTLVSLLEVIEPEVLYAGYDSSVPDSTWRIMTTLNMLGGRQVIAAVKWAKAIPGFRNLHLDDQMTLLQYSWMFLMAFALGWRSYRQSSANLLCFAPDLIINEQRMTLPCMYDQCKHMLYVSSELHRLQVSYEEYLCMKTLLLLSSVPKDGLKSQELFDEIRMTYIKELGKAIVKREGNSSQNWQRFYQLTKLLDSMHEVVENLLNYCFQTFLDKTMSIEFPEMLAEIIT
Description: (§1) This assay uses cells that stably express a chimera fusion protein comprising the LBD of a steroid hormone receptor fused to the DNA-binding domain (DBD) of GAL4 along with beta-lactamase reporter under transcriptional control of an upstream activator sequence (UAS). When agonist binds to the LBD of the GAL4 (DBD)-steroid hormone (LBD) chimera fusion protein, the protein binds to the UAS, resulting in expression of beta-lactamase. LBDs of androgen receptor (AR), progesterone receptor-beta (PRβ), glucocorticoid receptor (GR), estrogen receptor-α (ERα), and estrogen receptor-β (ERβ) were tested and IC50s calculated for inhibiting maximal activity attained with agonist.

[2] = Microsomal stability assay, monkey liver microsomes; assay type: in vitro ADME; conditions: pH 7.4, read-out: Liver microsome T½ (min) Monkey
Description: Microsomal stability assay is a widely used in vitro model to characterize the metabolic conversion by phase I enzymes, such as cytochrome P450 (CYP) enzymes. Since metabolism is known to be highly variable in different species, microsomal stability assay is commonly run in multiple species. Metabolic stability of testing compound can be evaluated using human, rat, mouse, or other animal liver or intestine microsomes to predict intrinsic clearance.
The assay was carried out in 96-well microtiter plates at 37° C. Reaction mixtures (25 μL) contained a final concentration of 1 μM test compound, 0.5 mg/mL liver microsomes protein, and 1 mM NADPH and/or 1 mM UDPGA (with alamethicin) in 100 mM potassium phosphate, pH 7.4 buffer with 3 mM MgCl2. The incubation was done with N=1, but duplicate incubation at each time point can be prepared if necessary. At each of the time points (for example, 0, 15, 30, and 60 minutes), 150 μL of quench solution (100% acetonitrile with 0.1% formic acid) with internal standard was transferred to each well. Besides the zero minute controls, mixtures containing the same components except the NADPH can also be prepared as the negative control. Verapamil was included as a positive control to verify assay performance. Plates were sealed, vortexed, and centrifuged at 4° C. for 15 minutes at 4000 rpm. The supernatant is transferred to fresh plates for LC/MS/MS analysis.
Summarized conditions: [Compound]=[…], [LM]=0.5 mg/mL, [NADPH]=1 mM and/or [UDPGA]=1 mM, Buffer=100 mM Potassium Phosphate, pH 7.4 with 3 mM MgCl2, Time=0, 15, 30, and 60 min, and Temperature=37° C.
All samples were analyzed on LC/MS/MS using an AB Sciex API 4000 instrument, coupled to a Shimadzu LC-20AD LC Pump system. Analytical samples were separated using a Waters Atlantis T3 dC18 reverse phase HPLC column (20 mm×2.1 mm) at a flow rate of 0.5 mL/min. The mobile phase consisted of 0.1% formic acid in water (solvent A) and 0.1% formic acid in 100% acetonitrile (solvent B).
The extent of metabolism is calculated as the disappearance of the test compound, compared to the 0-min time incubation. Initial rates are calculated for the compound concentration and used to determine half-life (t½) values and subsequently, the intrinsic clearance (Clint). Clint=(0.693)(1/t½ (min))(g of liver/kg of body weight)(mL incubation/mg of microsomal protein)(45 mg of microsomal protein/g of liver weight)

[3] = target: LBD of estrogen receptor-β (ERβ) fused to DBD of GAL4 (Homo sapiens, UniProt Q92731); experiment: LBD-expressing reporter assay (GeneBLAzer), ERβ LBD; assay type: cell-based; conditions: inhibition of maximal activity attained with agonist; read-out: Steroid Receptor LBD IC50 (μM) ERβ
Description: as §1, with “To assess if the representative compounds (Compounds A13, A28, A38, A74, A93, and A109) compete with ligand (agonist) for the ligand-binding domain (LBD) of steroid hormone receptors (which would be off-target), the GeneBLAzer assay was employed (Thermo Fisher). This” for “This”

[4] = target: T2, LBD of progesterone receptor-beta (PRβ) fused to DBD of GAL4 (Homo sapiens, UniProt P06401); experiment: LBD-expressing reporter assay (GeneBLAzer), PR LBD; assay type: cell-based; conditions: inhibition of maximal activity attained with agonist; read-out: Steroid Receptor LBD IC50 (μM) PR
T2 sequence (P06401 679-913 limits assumed): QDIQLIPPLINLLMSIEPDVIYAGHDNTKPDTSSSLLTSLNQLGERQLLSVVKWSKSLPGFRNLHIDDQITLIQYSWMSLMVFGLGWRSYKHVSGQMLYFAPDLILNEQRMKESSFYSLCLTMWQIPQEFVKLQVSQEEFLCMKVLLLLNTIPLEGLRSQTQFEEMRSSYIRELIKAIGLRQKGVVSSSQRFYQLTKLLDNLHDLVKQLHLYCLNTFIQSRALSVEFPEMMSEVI
Description: as §1

Chain of LBD of estrogen receptor-β (ERβ) fused to DBD of GAL4 (Q92731 264-498 limits assumed): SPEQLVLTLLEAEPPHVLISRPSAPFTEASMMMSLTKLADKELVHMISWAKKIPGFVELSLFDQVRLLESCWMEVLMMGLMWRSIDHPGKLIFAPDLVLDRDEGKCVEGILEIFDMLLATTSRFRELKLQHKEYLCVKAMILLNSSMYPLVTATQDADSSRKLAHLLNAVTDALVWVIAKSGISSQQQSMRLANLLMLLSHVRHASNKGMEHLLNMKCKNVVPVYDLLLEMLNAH

| SMILES | IC50 [1] | half-life at 1 μM [2] | IC50 [3] | IC50 [4] |
| --- | --- | --- | --- | --- |
| CC(C)(c1ccc(OCc2ccnc(NS(C)(=O)=O)n2)cc1)c1cc(Cl)c(OCCCl)c(C#N)c1 [Compound A109, N-(4-((4-(2-(3-chloro-4-(2-chloroethoxy)-5-cyanophenyl)propan-2-yl)phenoxy)methyl)pyrimidin-2-yl)methanesulfonamide] | > 10 µM | > 120 min | > 10 µM | 5.61 µM |
| CC(C)(c1ccc(OCc2ocnc2S(C)(=O)=O)cc1)c1cc(Cl)c(OCCCl)c(C#N)c1 [Compound A28, 3-chloro-2-(2-chloroethoxy)-5-(2-(4-((4-(methylsulfonyl)oxazol-5-yl)methoxy)phenyl)propan-2-yl)benzonitrile] | > 10 µM | 73 min | > 10 µM | 0.93 µM |
| CC(C)(c1ccc(OCc2coc(NS(C)(=O)=O)n2)cc1)c1cc(Cl)c(OCCCl)c(Cl)c1 [Compound A38, N-(4-((4-(2-(3,5-dichloro-4-(2-chloroethoxy)phenyl)propan-2-yl)phenoxy)methyl)oxazol-2-yl)methanesulfonamide] | > 10 µM | > 120 min | > 10 µM | 5.07 µM |
| CC(C)(c1ccc(OCc2ocnc2S(C)(=O)=O)cc1)c1cc(Cl)c(OCCCl)c(Cl)c1 [Compound A13, 5-((4-(2-(3,5-dichloro-4-(2-chloroethoxy)phenyl)propan-2-yl)phenoxy)methyl)-4-(methylsulfonyl)oxazole] | > 10 µM | > 120 min | > 10 µM | 0.97 µM |
| CC(C)(c1ccc(OC[C@H](O)CNS(C)(=O)=O)cc1)c1cc(Cl)c(OC[C@H](O)CCl)c(Cl)c1 [X, reference compound] | > 10 µM | – | 7.37 µM | 4.96 µM |
| CC(C)(c1ccc(OCc2ncc(S(C)(=O)=O)s2)cc1)c1cc(Cl)c(OCCCl)c(C#N)c1 [Compound A93, 3-chloro-2-(2-chloroethoxy)-5-(2-(4-((5-(methylsulfonyl)thiazol-2-yl)methoxy)phenyl)propan-2-yl)benzonitrile] | > 10 µM | 101 min | > 10 µM | 5.04 µM |
| CC(C)(c1ccc(OCc2ccnc(NS(C)(=O)=O)n2)cc1)c1cc(Cl)c(OCCCl)c(Cl)c1 [Compound A74, N-(4-((4-(2-(3,5-dichloro-4-(2-chloroethoxy)phenyl)propan-2-yl)phenoxy)methyl)pyrimidin-2-yl)methanesulfonamide] | 9.51 µM | > 120 min | > 10 µM | 5.41 µM |
